Measured values as given in US8952024B2, “Herbicidal pyrimidone derivatives” (E I du Pont de Nemours and Company, priority 2009, dated 2015).

What was measured:
Type in all cases: in vivo
[1] = system: barnyardgrass (Echinochloa crus-galli); test: Test A pre-/postemergence plant response
Outline: (§1)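 Visually rated 0–100 injury (100 = complete control) versus untreated plants, ~10 days in greenhouse. Application pre- (soil spray, loam/sand) and postemergence (2–10 cm, 1–2 leaf stage), same timepoint.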

corn (Zea mays) = test: Test A pre-/postemergence plant response
Outline: as §1

[2] = system: giant foxtail (Setaria faberii); test: Test A pre-/postemergence plant response
Outline: as §1

[3] = system: large crabgrass (Digitaria sanguinalis); test: Test A pre-/postemergence plant response
Outline: as §1

[4] = system: morningglory (Ipomoea spp.); test: Test A pre-/postemergence plant response
Outline: as §1

[5] = system: pigweed (Amaranthus retroflexus); test: Test A pre-/postemergence plant response
Outline: as §1

[6] = system: velvetleaf (Abutilon theophrasti); test: Test A pre-/postemergence plant response
Outline: as §1

[7] = system: wheat (Triticum aestivum); test: Test A pre-/postemergence plant response
Outline: as §1

[8] = system: winter barley (Hordeum vulgare); test: Test B postemergence plant response; details: for Barley plant response rating (0 to 100 scale): 62 g ai/ha, 0 is no effect
Excerpt: At the same time, plants selected from these crop and weed species and also winter barley (Hordeum vulgare), canarygrass (Phalaris minor), chickweed (Stellaria media) and windgrass (Apera spica-venti) were planted in pots containing Redi-Earth® planting medium (Scotts Company, 14111 Scottslawn Road, Marysville, Ohio 43041) comprising spaghnum peat moss, vermiculite, wetting agent and starter nutrients and treated with postemergence applications of some of the test chemicals formulated in the same manner. Plants ranged in height from 2 to 18 cm (1- to 4-leaf stage) for postemergence treatments.
Treated plants and controls were maintained in a greenhouse for 13 to 15 days, after which time all treated plants were visually evaluated and compared to controls. Plant response ratings, summarized in Table B, are based on a scale of 0 to 100 where 0 is no effect and 100 is complete control. A dash (-) response means no test result.

[9] = system: barnyardgrass (Echinochloa crus-galli); test: Test B flooded paddy test; details: for Plant response rating, Flood, Barnyardgrass: 250 g ai/ha, flooded paddy test, visual rating on 0 to 100 scale (0 no effect, 100 complete control) after 13 to 15 days; for Plant response rating, Barnyardgrass: Flood (flooded paddy test), 13 to 15 days
Outline: (§2)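 Visual scores run from 0 (no effect) to 100 (complete control), assigned by comparison with controls 13 to 15 days after treatment. Test compounds went straight into water standing 3 cm above the soil, around plants at the 2-leaf stage kept in a greenhouse.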

[10] = system: ducksalad (Heteranthera limosa); test: Test B flooded paddy test; details: for Plant response rating, Flood, Ducksalad: 250 g ai/ha, flooded paddy test, visual rating on 0 to 100 scale (0 no effect, 100 complete control) after 13 to 15 days; for Plant response rating, Ducksalad: Flood (flooded paddy test), 13 to 15 days
Outline: as §2

rice (Oryza sativa) = test: Test B flooded paddy test; details: for Plant response rating, Flood, Rice: 250 g ai/ha, flooded paddy test, visual rating on 0 to 100 scale (0 no effect, 100 complete control) after 13 to 15 days; for Plant response rating, Rice: Flood (flooded paddy test), 13 to 15 days
Outline: as §2

[11] = system: umbrella sedge (Cyperus difformis); test: Test B flooded paddy test; details: for Plant response rating, Flood, Sedge, Umbrella: 250 g ai/ha, flooded paddy test, visual rating on 0 to 100 scale (0 no effect, 100 complete control) after 13 to 15 days; for Plant response rating, Sedge, Umbrella: Flood (flooded paddy test), 13 to 15 days
Outline: as §2

[12] = Postemergence, 125 g ai/ha, 0 to 100 scale where 0 is no effect and 100 is complete control
[13] = Postemergence, 500 g ai/ha, 0 to 100 scale, 0 = no effect, 100 = complete control, approx. ten days
[14] = Preemergence, 125 g ai/ha, 0 to 100 scale, 0 = no effect, 100 = complete control
[15] = Preemergence, 500 g ai/ha, visual injury, 0 to 100 scale (0 no effect, 100 complete control), approx. ten days
[16] = Preemergence, 500 g ai/ha, 0 to 100 scale, 0 = no effect, 100 = complete control
[17] = postemergence, 100 is complete control, 13 to 15 days
[18] = Postemergence, 125 g ai/ha, scale 0 to 100 (0 no effect, 100 complete control)
[19] = 62 g ai/ha, scale of 0 to 100 where 0 is no effect and 100 is complete control
[20] = 125 g ai/ha, scale 0 to 100, 0 is no effect, 100 is complete control
[21] = Flood, 31 g ai/ha, scale 0 to 100 (0 no effect, 100 complete control)

SMILES: CCCCn1c(-c2cccc(Cl)c2)ncc(C(=O)C2=C(O)CCCC2=O)c1=O [Compound 146]
- Plant response rating, Barnyardgrass [1, 12]: 100
- Plant response rating, Barnyardgrass [1, 13]: 100
- Plant response rating, Barnyardgrass [1, 14]: 60
- Plant response rating, Barnyardgrass [1, 15]: 100
- Plant response rating, Corn (corn (Zea mays); [12]): 20
- Plant response rating, Corn (corn (Zea mays); [13]): 30
- Plant response rating, Corn (corn (Zea mays); [14]): 0
- Plant response rating, Corn (corn (Zea mays); [15]): 30
- Plant response rating, Foxtail, Giant [2, 12]: 70
- Plant response rating, Foxtail, Giant [2, 13]: 90
- Plant response rating, Foxtail, Giant [2, 14]: 30
- Plant response rating, Foxtail, Giant [2, 15]: 90
- Plant response rating, Crabgrass, Large [3, 12]: 80
- Plant response rating, Crabgrass, Large [3, 13]: 90
- Plant response rating, Crabgrass, Large [3, 14]: 60
- Plant response rating, Crabgrass, Large [3, 15]: 100
- Plant response rating, Morningglory [4, 12]: 90
- Plant response rating, Morningglory [4, 13]: 90
- Plant response rating, Morningglory [4, 14]: 10
- Plant response rating, Pigweed [5, 12]: 100
- Plant response rating, Pigweed [5, 13]: 100
- Plant response rating, Pigweed [5, 14]: 70
- Plant response rating, Pigweed [5, 15]: 100
- Plant response rating, Velvetleaf [6, 12]: 100
- Plant response rating, Velvetleaf [6, 13]: 100
- Plant response rating, Velvetleaf [6, 14]: 70
- Plant response rating, Velvetleaf [6, 16]: 100
- Plant response rating, Wheat [7, 12]: 20
- Plant response rating, Wheat [7, 13]: 50
- Plant response rating, Wheat [7, 14]: 0
- Plant response rating, Wheat [7, 16]: 40
- Barley plant response rating (0 to 100 scale) [8, 17]: 0
- Plant response rating, Barley ([8]; Postemergence, 31 g ai/ha, 0 to 100 scale (0 no effect, 100 complete control)): 0
- Plant response rating, Barley [8, 18]: 15
- Plant response rating, Barley ([8]; Postemergence, 250 g ai/ha, scale 0 to 100 (0 no effect, 100 complete control), 13 to 15 days): 30
- Plant response rating, Flood, Barnyardgrass [9]: 30
- Plant response rating, Barnyardgrass [9, 19]: 0
- Plant response rating, Barnyardgrass [9, 20]: 0
- Barnyardgrass plant response rating [9, 21]: 0
- Plant response rating, Flood, Ducksalad [10]: 100
- Plant response rating, Ducksalad [10, 19]: 60
- Plant response rating, Ducksalad [10, 20]: 80
- Ducksalad plant response rating [10, 21]: 0
- Plant response rating, Flood, Rice (rice (Oryza sativa)): 35
- Plant response rating, Rice (rice (Oryza sativa); [19]): 0
- Plant response rating, Rice (rice (Oryza sativa); [20]): 0
- Rice plant response rating (rice (Oryza sativa); [21]): 0
- Plant response rating, Flood, Sedge, Umbrella [11]: 90
- Plant response rating, Sedge, Umbrella [11, 19]: 50
- Plant response rating, Sedge, Umbrella [11, 20]: 80
- Sedge, Umbrella plant response rating [11, 21]: 0

SMILES: CCCCn1c(-c2cc(F)cc(F)c2)ncc(C(=O)C2=C(O)CCCC2=O)c1=O [Compound 121]
- Plant response rating, Barnyardgrass [1, 12]: 80
- Plant response rating, Barnyardgrass [1, 13]: 100
- Plant response rating, Barnyardgrass [1, 14]: 20
- Plant response rating, Barnyardgrass [1, 15]: 100
- Plant response rating, Corn (corn (Zea mays); [12]): 0
- Plant response rating, Corn (corn (Zea mays); [13]): 40
- Plant response rating, Corn (corn (Zea mays); [14]): 0
- Plant response rating, Corn (corn (Zea mays); [15]): 30
- Plant response rating, Foxtail, Giant [2, 12]: 90
- Plant response rating, Foxtail, Giant [2, 13]: 90
- Plant response rating, Foxtail, Giant [2, 14]: 80
- Plant response rating, Foxtail, Giant [2, 15]: 100
- Plant response rating, Crabgrass, Large [3, 12]: 80
- Plant response rating, Crabgrass, Large [3, 13]: 100
- Plant response rating, Crabgrass, Large [3, 14]: 90
- Plant response rating, Crabgrass, Large [3, 15]: 100
- Plant response rating, Morningglory [4, 12]: 100
- Plant response rating, Morningglory [4, 13]: 100
- Plant response rating, Morningglory [4, 14]: 0
- Plant response rating, Morningglory [4, 15]: 70
- Plant response rating, Pigweed [5, 12]: 100
- Plant response rating, Pigweed [5, 13]: 100
- Plant response rating, Pigweed [5, 14]: 80
- Plant response rating, Pigweed [5, 15]: 100
- Plant response rating, Velvetleaf [6, 12]: 100
- Plant response rating, Velvetleaf [6, 13]: 100
- Plant response rating, Velvetleaf [6, 14]: 80
- Plant response rating, Velvetleaf [6, 15]: 100
- Plant response rating, Wheat [7, 12]: 30
- Plant response rating, Wheat [7, 13]: 60
- Plant response rating, Wheat [7, 14]: 0
- Plant response rating, Wheat [7, 15]: 50
- Plant response rating, Barley ([8]; 31 g ai/ha, postemergence, scale 0 to 100, 0 is no effect, 100 is complete control): 0
- Barley plant response rating (0 to 100 scale) [8, 17]: 5
- Plant response rating, Barley [8, 18]: 5
- Plant response rating, Barley ([8]; Postemergence, 250 g ai/ha, scale 0 to 100 (0 no effect, 100 complete control)): 10
- Plant response rating, Flood, Barnyardgrass [9]: 70
- Plant response rating, Barnyardgrass [9, 19]: 30
- Plant response rating, Flood, Ducksalad [10]: 80
- Plant response rating, Ducksalad [10, 19]: 45
- Plant response rating, Flood, Rice (rice (Oryza sativa)): 55
- Plant response rating, Rice (rice (Oryza sativa); [19]): 0
- Plant response rating, Flood, Sedge, Umbrella [11]: 70
- Plant response rating, Sedge, Umbrella [11, 19]: 30
